# In patent publication US7393825B2, “Microdose therapy” (Strakan International Limited, priority 1997, dated 2008):
# Tests used:
# L-NAME treated rats = assay: Mean arterial pressure response to vasoactive infusions in control and L-NAME treated rats; assay type: in vivo, rat; settings: for shift of concentration-mean arterial pressure response curve after NO synthase blockade: L-NAME treated versus control rats
# Procedure: The surgical method was based on the technique of Thompson et al (Hypertens. 20:809, 1992). […] The catheters were tunnelled subcutaneously and exteriorized at the back of the neck and sutured in place. Two days after surgery, MAP could be recorded (MacLab DAS, ADInstruments, Milford, Mass.). After connection, an equilibration period of approximately 30 minutes allowed for the determination of the steady state level of MAP before any recording began. Baseline MAP was determined from readings averaged over 5 minutes, taken from each rat at 15 minute intervals for at least 1 hour prior to the start of any experiment.
# Rats were randomly assigned treatment with N^ω-nitro-L-arginine methyl ester (L-NAME) for 30 minutes (100 mg/kg, intraperitoneally) or 12 days (100 mg/kg, in drinking water) or tap water. Two days prior to the day of the experiment rats were instrumented with catheters, as described above. Following baseline measurements of MAP, rats were given a infusions of sodium nitroprusside (SNP, 0.5 to 32 ug/kg per minute dissolved in 0.9% sterile saline) with a step-wise increase in concentration every two minutes. Rats were allowed 30 minutes to recover from the SNP administration. Rats were then given infusions of glyceryl trinitrate (GTN, 0.5 to 32 ug/kg per minute dissolved in 0.9% sterile saline) with a step-wise increase in concentration every two minutes.
# Throughout all of these pharmacological manipulations, MAP and HR were recorded at a sampling rate of 100 Hz and the data was stored on a disk drive for later analysis.
# [1] = tested on: patients with previously diagnosed ED; assay: Clinical case studies in patients with erectile dysfunction; assay type: in vivo, human; settings: 0.2 mg/h patch
# Procedure: Clinical Data: For erectile dysfunction reversal with microdoses of NO General Methods. Measurements were made in a clinical erectile dysfunction (ED) laboratory in patients with previously diagnosed ED. These patients were being evaluated for the purpose of optimization of their intracavernous injection dosing. All men were assessed using the Queen's University Human Sexuality Group Protocol (Kingston, Ontario, Canada).
# [2] = Plasma concentration of glyceryl trinitrate after patch or spray delivery; assay type: in vivo, human; settings: 0.2 mg/h patch after 20 to 30 minutes
# Procedure: The concentration of glyceryl trinitrate (the typical form of NO donor derived from Nitrospray or Nitropatches) has been reported in the literature for such delivery routes to be in the order of 200 to 400 pg/ml of plasma (Sun et al., J. Clin. Pharmacol. 35:390, 1995). Based on the clinical case studies performed, it was noted that the beneficial effects of a 0.2 mg/h patch are observed after 20 to 30 minutes. This corresponds to a plasma concentration of 100 pg/ml. In respect of the application of the invention to ED therapy a preferred range of NO agent (such as GTN) is a steady state plasma concentration of about 50 to about 200 pg/ml. This range corresponds to the “window” referred to above as illustrated in FIG. 4.
# [3] = in vivo; cited from earlier work
# renal vasculature = assay: Renal interstitial hydrostatic pressure (RIHP) and mean arterial pressure in anaesthetized rats
smiles,measurement,setting,value
"O=[N+]([O-])OCC(CO[N+](=O)[O-])O[N+](=O)[O-] [GTN, glyceryl trinitrate]",reversal of NO synthase blockade induced hypertension / excessive vasoconstriction,"L-NAME treated rats; L-NAME treated rats, concentrations that do not lower MAP in controls",almost completely reversed
same,shift of concentration-mean arterial pressure response curve after NO synthase blockade,L-NAME treated rats,shifted leftward
same,time to beneficial effects,[1],20 to 30 min
same,plasma concentration corresponding to onset of beneficial effects,[2],0.1 ng/mL
same,plasma concentration reported in the literature,[3],0.2 to 0.4 ng/mL
"CC(C)NCC(O)c1ccc(O)c(O)c1 (stereo not shown) [INE, isopropylnorepinephrine]",shift of concentration-mean arterial pressure response curve after NO synthase blockade,L-NAME treated rats,identical both before and after nitric oxide synthase blockade
N=C(N)NCCC[C@H](N)C(=O)O [L-Arginine],renal vasoconstriction as measured by RIHP changes,"renal vasculature; L-NAME treated, 150-200 mg/kg per min, FIG. 6",reversed the renal vasoconstriction
"COC(=O)[C@@H](N)CCCNC(=N)N[N+](=O)[O-] [L-NAME, N^ω nitro-L-arginine methyl ester]",hypertension following maximal NO synthase blockade,L-NAME treated rats; L-NAME alone,40 mmHg
same,change in RIHP,"renal vasculature; administration of NO synthase blocker, FIG. 5",sharp decline in RIHP
COc1cc2nc(N3CCN(C(=O)c4ccco4)CC3)nc(N)c2cc1OC [prazosin],increased sensitivity to nitric oxide donors following treatment,L-NAME treated rats; FIG. 9,does not occur
